Results: patent US20250100997A1, “PYRIDAZINYL AMINO DERIVATIVES AS ALK5 INHIBITORS” (CHIESI FARMACEUTICI S.P.A., priority 2022, published 2025)

Biological target: T1, human ALK5 (recombinant TGF β1 N-term GST-tagged, 80-end) (Homo sapiens, UniProt P36897)
T1 construct: human ALK5 (recombinant TGF β1 N-term GST-tagged, 80-end); GST (N); purchased
T1 sequence (P36897 80-503 limits assumed): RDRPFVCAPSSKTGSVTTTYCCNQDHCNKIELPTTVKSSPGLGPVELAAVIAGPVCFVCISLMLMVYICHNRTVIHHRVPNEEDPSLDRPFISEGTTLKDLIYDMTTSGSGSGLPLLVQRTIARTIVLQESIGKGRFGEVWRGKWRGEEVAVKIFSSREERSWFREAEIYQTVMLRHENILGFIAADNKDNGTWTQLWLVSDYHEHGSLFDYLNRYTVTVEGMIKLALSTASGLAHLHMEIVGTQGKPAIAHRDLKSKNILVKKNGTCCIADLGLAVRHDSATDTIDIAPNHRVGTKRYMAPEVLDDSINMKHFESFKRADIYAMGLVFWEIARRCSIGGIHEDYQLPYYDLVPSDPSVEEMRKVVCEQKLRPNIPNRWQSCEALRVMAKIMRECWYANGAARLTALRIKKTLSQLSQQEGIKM
Assay: ADP-GLO kinase assay, biochemical ALK5 assay
Settings: pIC50 converted to pKi using the Cheng-Prusoff equation, ATP at Km, or high ATP (30-fold Km) for very potent compounds, 25° C.
Protocol: The enzymatic activity of compounds of the present invention was monitored measuring the formation of ADP using the ADP-GLO Kinases assay. Following the incubation of the purified enzyme, a substrate and ATP, the produced ADP was converted into ATP, which in turn was converted into light by Ultra-Glo Luciferase. The luminescent signal positively correlated with ADP amount and kinase activity. Briefly, the kinase reaction was performed by incubating 2.6 nM of the purified, commercially available human ALK5 (recombinant TGF β1 N-term GST-tagged, 80-end), a final concentration of TGFβ1 peptide 94.5 μM (Promega, T36-58) and ultra-pure ATP (Promega V915B). The ATP concentration was set at the Km value (concentration of substrate which permits the enzyme to achieve half maximal velocity (Vmax)) of ALK5 (0.5 μM). Compound and ALK5 kinase were mixed and incubated for 15 mins. Reactions were initiated by addition of ATP at a final concentration in the assay of […]. After an incubation of 120 min, the reaction was stopped, and ADP production detected with ADP-Glo kit according to manufacturer's indications. To overcome the assay wall limit for very potent compounds the assay protocol was changed by using a high ATP concentration (30-fold Km). Compounds and ALK5 kinase were mixed for 15 min and the reaction initiated by addition of TGFβ1 peptide and ATP at a final concentration in the assay of 15 μM. After an incubation of 60 min, the kinase reaction was stopped, and ADP production detected with ADP-Glo kit according to manufacturer's indications.
All reaction and incubation steps were performed at 25° C. and the assays were performed in 384-well format and validated using a selection of reference compounds tested in 11-point concentration-response curve.
Results were expressed as pIC50 (negative logarithm of IC50) and subsequently converted to pKi (negative logarithm of […]) using the Cheng-Prusoff equation. The higher the value of pKi, the greater the inhibition of ALK5 activity.

Structure (SMILES)	Ki
CN1CCN(CCC(=O)Nc2cc(Nc3cc(-c4cc(Cl)ccc4F)nnc3C3CC(=O)N(C)C3)ccn2)CC1 (centres unmarked) [Example 23, N-(4-((6-(5-chloro-2-fluorophenyl)-3-(1-methyl-5-oxopyrrolidin-3-yl)pyridazin-4-yl)amino)pyridin-2-yl)-3-(4-methylpiperazin-1-yl)propanamide]	1 to 3.16 nM
COC(=O)N1CCC(c2nnc(-c3cc(Cl)ccc3F)cc2Nc2ccnc(NC(=O)CCN3CCN(C)CC3)c2)CC1 [Example 7, methyl 4-[6-(5-chloro-2-fluorophenyl)-4-({2-[3-(4-methylpiperazin-1-yl)propanamido]pyridin-4-yl}amino)pyridazin-3-yl]piperidine-1-carboxylate]	0.126 to 0.794 nM
